According to the supplement of paper PMC10307832:

Columns and labels:
Test in all cases: relative viability (nuclei count vs DMSO), 5 days (fraction); higher = more cells survive
VX-11e + Olaparib = compound: CC1=CN=C(N=C1C2=CNC(=C2)C(=O)N[C@H](CO)C3=CC(=CC=C3)Cl)NC4=C(C=C(C=C4)F)Cl [VX-11e] + O=C(c1cc(Cc2n[nH]c(=O)c3ccccc23)ccc1F)N1CCN(C(=O)C2CC2)CC1 [Olaparib] (partner 8 µM)
In short: (§1)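 The day after seeding in 1536-well plates, lung cancer cell lines were treated by pin tool with a single drug, or with a fixed anchor-drug dose together with five library-drug doses (not always all listed) in √10 steps. After 5 days, a combined fix-and-stain solution (final 0.05% Triton X-100, 1% formaldehyde, 1 ug/ml Hoechst) was added. Nuclei counted on 4× images gave relative viability as treated counts over vehicle counts, reported as the median of duplicate plates.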

VX-11e + Bortezomib = compound: CC1=CN=C(N=C1C2=CNC(=C2)C(=O)N[C@H](CO)C3=CC(=CC=C3)Cl)NC4=C(C=C(C=C4)F)Cl [VX-11e] + CC(C)C[C@H](NC(=O)[C@H](Cc1ccccc1)NC(=O)c1cnccn1)B(O)O [Bortezomib] (partner 0.002 µM)
In short: as §1

VX-11e + Pemetrexed = compound: CC1=CN=C(N=C1C2=CNC(=C2)C(=O)N[C@H](CO)C3=CC(=CC=C3)Cl)NC4=C(C=C(C=C4)F)Cl [VX-11e] + Nc1nc2[nH]cc(CCc3ccc(C(=O)N[C@@H](CCC(=O)O)C(=O)O)cc3)c2c(=O)[nH]1 [Pemetrexed] (partner 0.2 µM)
In short: as §1

VX-11e + Alpelisib = compound: CC1=CN=C(N=C1C2=CNC(=C2)C(=O)N[C@H](CO)C3=CC(=CC=C3)Cl)NC4=C(C=C(C=C4)F)Cl [VX-11e] + Cc1nc(NC(=O)N2CCC[C@H]2C(N)=O)sc1-c1ccnc(C(C)(C)C(F)(F)F)c1 [Alpelisib] (partner 2 µM)
In short: as §1

| Cell Line | relative viability (VX-11e + Olaparib; first compound 0.04 µM) | relative viability (VX-11e + Olaparib; first compound 0.1265 µM) | relative viability (VX-11e + Olaparib; first compound 0.4 µM) | relative viability (VX-11e + Olaparib; first compound 1.265 µM) | relative viability (VX-11e + Olaparib; first compound 4 µM) | relative viability (VX-11e + Bortezomib; first compound 0.04 µM) | relative viability (VX-11e + Bortezomib; first compound 0.1265 µM) | relative viability (VX-11e + Bortezomib; first compound 0.4 µM) | relative viability (VX-11e + Bortezomib; first compound 1.265 µM) | relative viability (VX-11e + Bortezomib; first compound 4 µM) | relative viability (VX-11e + Pemetrexed; first compound 0.04 µM) | relative viability (VX-11e + Pemetrexed; first compound 0.1265 µM) | relative viability (VX-11e + Pemetrexed; first compound 0.4 µM) | relative viability (VX-11e + Pemetrexed; first compound 1.265 µM) | relative viability (VX-11e + Pemetrexed; first compound 4 µM) | relative viability (VX-11e + Alpelisib; first compound 0.04 µM) | relative viability (VX-11e + Alpelisib; first compound 0.1265 µM) | relative viability (VX-11e + Alpelisib; first compound 0.4 µM) | relative viability (VX-11e + Alpelisib; first compound 1.265 µM) | relative viability (VX-11e + Alpelisib; first compound 4 µM) |
| --- | --- | --- | --- | --- | --- | --- | --- | --- | --- | --- | --- | --- | --- | --- | --- | --- | --- | --- | --- | --- |
| NCI-H1437 | 0.621 | 0.619 | 0.653 | 0.529 | 0.476 | 0.597 | 0.316 | 0.306 | 0.312 | 0.202 | 0.331 | 0.274 | 0.296 | 0.257 | 0.219 | 0.996 | 0.869 | 0.891 | 0.642 | 0.247 |
| NCI-H1651 | 0.169 | 0.201 | 0.209 | 0.152 | 0.177 | 0.946 | 0.879 | 0.921 | 0.922 | 0.871 | 0.469 | 0.608 | 0.553 | 0.479 | 0.484 | 0.955 | 0.882 | 1 | 0.735 | 0.705 |
| NCI-H1666 | 0.756 | 0.77 |  | 0.742 | 0.649 | 0.877 | 0.862 | 0.627 | 0.678 | 0.505 | 0.851 | 0.901 |  | 0.756 | 0.6 | 0.706 | 1.01 | 0.8 | 0.461 | 0.333 |
| NCI-H1734 | 0.632 | 0.601 | 0.607 | 0.542 | 0.365 | 0.965 | 0.826 | 0.726 | 0.513 | 0.365 | 0.428 | 0.398 | 0.445 | 0.306 | 0.315 | 0.689 | 0.691 | 0.648 | 0.674 | 0.41 |
| NCI-H1755 | 0.903 | 0.853 | 0.874 | 0.942 | 0.747 | 0.965 | 0.931 | 0.884 | 0.923 | 0.608 | 0.449 | 0.326 | 0.409 | 0.424 | 0.396 | 0.962 | 0.885 | 0.882 | 0.931 | 0.497 |
| NCI-H1792 |  | 0.541 |  | 0.518 | 0.287 | 1.01 | 0.912 | 0.94 | 0.876 | 0.686 |  | 0.719 |  | 0.343 | 0.0593 | 0.799 | 0.631 | 0.649 | 0.628 | 0.202 |
| NCI-H1915 | 0.277 | 0.23 | 0.305 | 0.225 | 0.231 | 1.02 | 0.923 | 1.03 | 0.939 | 0.757 | 0.484 | 0.509 | 0.477 | 0.381 | 0.388 | 1.08 | 0.973 | 1.08 | 0.978 | 0.652 |
| NCI-H1975 | 0.84 | 0.808 | 0.806 | 0.803 | 0.31 | 0.475 | 0.372 | 0.301 | 0.281 | 0.178 | 0.307 | 0.276 | 0.295 | 0.27 | 0.258 | 0.649 | 0.639 | 0.591 | 0.508 | 0.191 |
| NCI-H1993 |  | 1.13 | 0.895 | 0.879 | 0.785 |  | 1.04 |  | 0.742 | 0.765 |  | 0.537 | 0.457 | 0.58 | 0.521 |  | 0.673 |  | 0.618 | 0.649 |
| NCI-H2009 | 0.684 | 0.635 | 0.805 | 0.769 | 0.378 | 1.08 | 0.944 | 0.797 | 0.254 | 0.201 | 1.08 | 1.03 | 1.12 | 1.1 | 0.673 | 1.2 | 1.1 | 1.07 | 0.571 | 0.285 |
| NCI-H2023 | 0.541 | 0.45 | 0.507 | 0.475 | 0.346 | 0.993 | 1.03 | 0.098 | 0.394 | 0.418 | 0.224 | 0.241 | 0.225 | 0.145 | 0.157 | 0.59 | 0.611 | 0.572 | 0.458 | 0.257 |
| NCI-H2085 | 0.835 | 0.758 | 0.709 | 0.706 | 0.598 | 1.04 | 0.979 | 1.03 | 0.898 | 0.825 | 0.862 | 0.873 | 0.81 | 0.635 | 0.583 | 1.11 | 0.88 | 0.913 | 0.842 | 0.699 |
| NCI-H2087 | 0.646 | 0.659 |  | 0.531 | 0.252 | 0.863 | 0.639 | 0.582 | 0.921 | 0.287 | 0.691 | 0.613 |  | 0.64 | 0.544 | 1.09 | 1.06 | 0.946 | 0.983 | 0.276 |
| NCI-H2126 | 0.885 | 0.874 | 0.864 | 0.879 | 0.751 |  | 1.06 | 1.01 | 1.14 | 1.02 | 0.554 | 0.621 | 0.399 | 0.567 | 0.517 |  | 0.755 | 0.747 | 0.68 | 0.578 |
| NCI-H2228 | 0.681 | 0.631 | 0.362 | 0.417 | 0.21 | 1.18 | 1.18 | 0.221 | 0.681 | 0.284 | 0.337 | 0.371 | 0.363 | 0.311 | 0.183 | 0.631 | 0.922 | 0.715 | 0.548 | 0.232 |
| NCI-H2347 | 0.585 | 0.6 | 0.636 | 0.518 | 0.36 | 0.87 | 0.801 | 0.815 | 0.738 | 0.435 | 0.412 | 0.442 | 0.423 | 0.389 | 0.368 | 1.15 | 0.991 | 1 | 0.618 | 0.379 |
